Literature values in patent publication US20130230592A1, “NOVEL OMEGA-3 AND OMEGA-6 FATTY ACID COMPOSITIONS AND USES THEREOF” (priority 2010, published 2013).

Settings: after oral intake of 750 mg EPA

plasma level: about 417 μmol/L
SMILES: CCC=CCC=CCC=CCC=CCC=CCCCC(=O)O [EPA, eicosa-5,8,11,14,17-pentaenoic acid]
